In patent publication US9321782B2, “Process for preparation of novel 42-O-(heteroalkoxyalkyl) rapamicin compounds with anti-proliferative properties” (MERIL LIFE SCIENCES PVT. LTD., priority 2010, dated 2016):

Columns and labels:
[1] = Stability analysis (HPLC purity on storage) without BHT at various temperatures; type: physicochemical; conditions: without BHT
Description: (§1) To check the purity of the 42-O-(heteroalkoxyalkyl) rapamycin compounds the following condition was followed by using High Performance Liquid Chromatography, Phenomenex Synergi Hydro-RP 80a (250×4.6 ) mm, 4 micron column. The mobile phase was 65:15:20 methanol:acetonitile:water mixture. The detector was set at 276 nm and the flow rate was adjusted to 1.5 mL/min. Column temperature was 40° C. 2.0 μg of 42-O-(heteroalkoxyalkyl) rapamycin compounds was injected onto the column in a volume of 5.0 μL methanol with run time of 50 min.
The purity loss was higher at increased temperature, but there was no apparent change in the impurity profile. Table 2A presents the purity of various 42-O-(heteroalkoxyalkyl) rapamycin compounds at different time intervals and temperature conditions.

[2] = Stability analysis (HPLC purity on storage) with various concentrations of BHT at 40° C.; type: physicochemical; conditions: sealed container
Description: as §1
The inventors have also conducted the stability study of various 42-O-(heteroalkoxyalkyl) rapamycin compounds as mentioned above using various BHT concentrations. The study was conducted at 40° C. temperature in sealed container for 8 weeks.
42-O-(heteroalkoxyalkyl) rapamycin compounds obtained as per procedure described in Example 1 are respectively added with anti-oxidant, namely Butylated Hydroxytoluene (or BHT), at a concentration of 0.1%, 0.2%, 0.5%, and 1.0% (w/w) based on 100% (w/w) of 42-O-(heteroalkoxyalkyl) rapamycin compounds in sealed container to study the stability at 40° C. temperature. […] The purity data with the addition of different amounts of anti-oxidant as added to 42-O-(tetrahydrofuran-3-yl) rapamycin compound, 42-O-(oxetan-3-yl) rapamycin compound and 42-O-(tetrahydropyran-3-yl) rapamycin compound checked at different time intervals are summarized in Table 2B as below mentioned.

COC1CC(C[C@H](C)[C@@H]2CC(=O)[C@H](C)/C=C(\C)C(O)[C@@H](OC)C(=O)[C@H](C)C[C@H](C)/C=C/C=C/C=C(\C)[C@@H](OC)C[C@@H]3CC[C@@H](C)[C@@](O)(O3)C(=O)C(=O)N3CCCC[C@H]3C(=O)O2)CCC1OC1CCCOC1 (stereo partly shown) [Merilimus-3, 42-O-(tetrahydropyran-3-yl) rapamycin]
Purity (%) ([1]; 5° C. (sealed), 00 weeks after synthesis): 97.3%
Purity (%) ([1]; 5° C. (sealed), 02 weeks after synthesis): 96.0%
Purity (%) ([1]; 5° C. (sealed), 04 weeks after synthesis): 95.4%
Purity (%) ([1]; 5° C. (sealed), 08 weeks after synthesis): 94.5%
Purity (%) ([1]; 5° C. (sealed), 12 weeks after synthesis): 93.9%
Purity (%) ([1]; 25° C. (sealed), 00 weeks after synthesis): 97.6%
Purity (%) ([1]; 25° C. (sealed), 02 weeks after synthesis): 95.7%
Purity (%) ([1]; 25° C. (sealed), 04 weeks after synthesis): 95.2%
Purity (%) ([1]; 25° C. (sealed), 08 weeks after synthesis): 94.6%
Purity (%) ([1]; 25° C. (sealed), 12 weeks after synthesis): 93.5%
Purity (%) ([1]; 25° C. (unsealed), 00 weeks after synthesis): 97.0%
Purity (%) ([1]; 25° C. (unsealed), 02 weeks after synthesis): 95.3%
Purity (%) ([1]; 25° C. (unsealed), 04 weeks after synthesis): 94.5%
Purity (%) ([1]; 25° C. (unsealed), 08 weeks after synthesis): 93.8%
Purity (%) ([1]; 25° C. (unsealed), 12 weeks after synthesis): 93.1%
Purity (%) ([1]; 40° C. (sealed), 00 weeks after synthesis): 97.5%
Purity (%) ([1]; 40° C. (sealed), 02 weeks after synthesis): 94.4%
Purity (%) ([1]; 40° C. (sealed), 04 weeks after synthesis): 93.7%
Purity (%) ([1]; 40° C. (sealed), 08 weeks after synthesis): 92.3%
Purity (%) ([1]; 40° C. (sealed), 12 weeks after synthesis): 91.6%
Purity (%) ([2]; BHT 0.0% (w/w), 0 week): 97.5%
Purity (%) ([2]; BHT 0.0% (w/w), 2 weeks): 94.4%
Purity (%) ([2]; BHT 0.0% (w/w), 4 weeks): 93.7%
Purity (%) ([2]; BHT 0.0% (w/w), 8 weeks): 92.3%
Purity (%) ([2]; BHT 0.1% (w/w), 0 week): 97.5%
Purity (%) ([2]; BHT 0.1% (w/w), 2 weeks): 95.9%
Purity (%) ([2]; BHT 0.1% (w/w), 4 weeks): 94.3%
Purity (%) ([2]; BHT 0.1% (w/w), 8 weeks): 93.6%
Purity (%) ([2]; BHT 0.2% (w/w), 0 week): 97.6%
Purity (%) ([2]; BHT 0.2% (w/w), 2 weeks): 96.3%
Purity (%) ([2]; BHT 0.2% (w/w), 4 weeks): 95.6%
Purity (%) ([2]; BHT 0.2% (w/w), 8 weeks): 94.1%
Purity (%) ([2]; BHT 0.5% (w/w), 0 week): 97.3%
Purity (%) ([2]; BHT 0.5% (w/w), 2 weeks): 96.5%
Purity (%) ([2]; BHT 0.5% (w/w), 4 weeks): 95.9%
Purity (%) ([2]; BHT 0.5% (w/w), 8 weeks): 94.5%
Purity (%) ([2]; BHT 1.0% (w/w), 0 week): 97.4%
Purity (%) ([2]; BHT 1.0% (w/w), 2 weeks): 96.6%
Purity (%) ([2]; BHT 1.0% (w/w), 4 weeks): 95.6%
Purity (%) ([2]; BHT 1.0% (w/w), 8 weeks): 94.9%
